Results taken from paper PMC12621184, “Synthesis and Pharmacological Characterization of Nociceptin/Orphanin FQ Dimeric Ligands” (Journal of Medicinal Chemistry, 2025).
Values joined by “and” are separate entries in the source; they are usually repeats but may differ in a detail not shown here. Equal values may be shown once. Bridge positions count the residues as written; N and C are the ends. Peptide text beside a SMILES is read from it. I, II: the chains in the order shown.

Assays:
[1] = target: T1, human μ opioid receptor (Homo sapiens, UniProt P35372); assay: Calcium mobilization assay, CHO cells with μ receptor and chimeric G protein; format: cell-based; settings: CHO cells coexpressing human μ receptor and Gαqi5; 5 experiments in duplicate; read-out: calcium mobilization at μ receptor, concentration up to which inactive
T1 construct: expressed in transfected cells
Experimental: (§1) Chinese hamster ovary (CHO) cells stably coexpressing the human NOP, μ, or κ opioid receptors and the Gαqi5 protein or the human δ and the GαqG66Di5 protein were used in this assay. , Cells were cultured in DMEM/F-12 (1:1) medium supplemented with 10% FBS, 2 mM L-glutamine, […], 100 IU/mL penicillin, and 100 IU/mL streptomycin. Cells were maintained at 37 °C in a humidified atmosphere with 5% CO2 and were seeded at 50 000 cells/well into 96-well black, clear-bottom plates 24 h before test. Loading for 45 min with a solution consisting of HBSS supplemented with 2.5 mM probenecid, 3 μM Fluo-4 AM, and 0.01% pluronic acid ensures the calcium-sensitive dye (Fluo-4) reaches the needed concentration inside the cell, while the exchange of the solution with 100 μL/well of buffer consisting of HBSS with 20 mM HEPES, 2.5 mM probenecid, and 500 μM Brilliant Black allows for fluorescence background to decrease. Serial dilutions of ligands were prepared in HBSS buffer with 20 mM HEPES and 0.02% bovine serum albumin (BSA) to minimize the ligands’ stickiness to plasticware. The automated microplate reader FlexStation II (Molecular Devices, CA, US) was employed at 37 °C to detect changes in fluorescence intensity. The effects of all compounds were expressed as the maximum change in percentage over the baseline fluorescence measured in samples treated with vehicles. […]

[2] = tested on: mouse vas deferens from NOP(−/−) mice; assay: Electrically stimulated mouse vas deferens bioassay, NOP(−/−) tissues; settings: mVD from CD-1 NOP(−/−) mice; 5 experiments
Experimental: (§2) This study was approved by the Animal Welfare Body of the University of Ferrara and by the Italian Ministry of Health (authorization number CBCC2.N.BXI). Experiments were performed on an isolated mouse vas deferens. All experiments were conducted with mice bred and housed in the University of Ferrara’s animal facility under specific pathogen-free conditions (SPF). All mice were housed in cages with individual ventilation, with a constant temperature of 21 °C, 60% humidity, and a 12 h light/dark cycle. Food and water were provided ad libitum. CD-1 NOP(+/+) and CD-1 NOP(−/−) male mice, aged 9 to 12 months, were used. Animals were sacrificed on the day of the experiment with CO2 overdose. Bioassay experiments were performed as previously described. The tissues were suspended in 5 mL organ bath containing Krebs solution (NaCl 118.5 […]). The Krebs solution was oxygenated with 95% O2 and 5% CO2 and the temperature set at 33 °C with a resting tension of 0.3 g applied to the tissues. Tissues were stimulated through two platinum electrodes with a supramaximal rectangular pulse of 1 ms duration, 0.05 Hz frequency, and 80 V of amplitude. The electrically evoked contractions were measured isotonically by means of Basile strain gauge transducers (Basile, IT) and a recorder with a Power Lab 8 instrument (ADInstruments, CO, U.S.). Following an equilibration period of approximately 60 min, the contractions induced by electrical field stimulation were stable. At this time, cumulative concentration response curves were carried out.
(§3) Concentration-response curves to agonists were analyzed by a four-parameter logistic nonlinear regression model: Effect = baseline + (E max – baseline)/(1 + 10^((logEC50–log[ligand])slope)). […] Experimental data were expressed as mean ± sem of at least 5 experiments. Potency values were expressed as the mean and CL95%. In vitro E max values were analyzed by one-way ANOVA, while in vivo latency data were evaluated by one-way ANOVA followed by Dunnett’s post hoc test. […]

[3] = target: T2, human κ opioid receptor (Homo sapiens, UniProt P41145); assay: Calcium mobilization assay, CHO cells with κ receptor and chimeric G protein; format: cell-based; settings: CHO cells coexpressing human κ receptor and Gαqi5; 5 experiments in duplicate; read-out: calcium mobilization at κ receptor, concentration up to which inactive
T2 construct: expressed in transfected cells
Experimental: as §1

[4] = target: human NOP (Homo sapiens, UniProt P41146); assay: Calcium mobilization assay, CHO cells with NOP receptor and chimeric G protein; format: cell-based; set-up: expressed in transfected cells
[5] = tested on: loss of the righting reflex (RR) in NOP(−/−) mice; assay: Loss of the righting reflex assay in NOP(−/−) mice; format: in vivo, mouse; settings: 10 nmol, icv; N = 7–9 per group
Experimental: All of the experimental procedures adopted in the in vivo studies comply with the European Directive 2010/63/EU on protecting animals used for scientific purposes and Italian Legislative Decree no. 26 of March 4, 2014. These experiments were approved by the Animal Welfare Body of the University of Ferrara and by the Ministry of Health (authorization number 677/2024-PR). In vivo studies have been reported following ARRIVE guidelines. All experiments were conducted with mice bred and housed in the University of Ferrara’s animal facility under specific pathogen-free conditions. All mice were housed in cages with individual ventilation, with a constant temperature of 21 °C, 60% humidity, and a 12 h light/dark cycle. Food and water were provided ad libitum. […] When the animals lost RR, they were placed in a plastic cage, and the time was recorded by an expert observer, blind to drug treatments and/or genotype. […]
as §3

[6] = tested on: mouse vas deferens from NOP(+/+) mice; assay: Electrically stimulated mouse vas deferens bioassay, NOP(+/+) tissues
Experimental: as §2
Concentration-response curves to agonists were analyzed by a four-parameter logistic nonlinear regression model: Effect = baseline + (E max – baseline)/(1 + 10^((logEC50–log[ligand])slope)). […] Experimental data were expressed as mean ± sem of at least 5 experiments. Potency values were expressed as the mean and CL95%. In vitro E max values were analyzed by one-way ANOVA, while in vivo latency data were evaluated by one-way ANOVA followed by Dunnett’s post hoc test. The proportion of mice losing the righting reflex was compared by Fisher’s exact test performed on raw data. GraphPad Prism 10.0 software was used for all of the analyses. The terminology employed is consistent with the International Union of Basic and Clinical Pharmacology (IUPHAR) recommendations. ,

Chain of human NOP (P41146 whole entry): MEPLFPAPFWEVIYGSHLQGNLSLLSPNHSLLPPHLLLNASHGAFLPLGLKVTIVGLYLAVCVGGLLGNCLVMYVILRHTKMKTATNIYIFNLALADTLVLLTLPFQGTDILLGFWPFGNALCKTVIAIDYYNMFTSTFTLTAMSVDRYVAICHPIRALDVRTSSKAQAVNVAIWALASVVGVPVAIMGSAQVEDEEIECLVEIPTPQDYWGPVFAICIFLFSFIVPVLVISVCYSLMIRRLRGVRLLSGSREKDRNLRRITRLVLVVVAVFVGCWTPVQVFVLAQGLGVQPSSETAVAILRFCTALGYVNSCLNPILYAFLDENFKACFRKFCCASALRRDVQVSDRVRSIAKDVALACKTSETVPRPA
T2 sequence (P41145 whole entry): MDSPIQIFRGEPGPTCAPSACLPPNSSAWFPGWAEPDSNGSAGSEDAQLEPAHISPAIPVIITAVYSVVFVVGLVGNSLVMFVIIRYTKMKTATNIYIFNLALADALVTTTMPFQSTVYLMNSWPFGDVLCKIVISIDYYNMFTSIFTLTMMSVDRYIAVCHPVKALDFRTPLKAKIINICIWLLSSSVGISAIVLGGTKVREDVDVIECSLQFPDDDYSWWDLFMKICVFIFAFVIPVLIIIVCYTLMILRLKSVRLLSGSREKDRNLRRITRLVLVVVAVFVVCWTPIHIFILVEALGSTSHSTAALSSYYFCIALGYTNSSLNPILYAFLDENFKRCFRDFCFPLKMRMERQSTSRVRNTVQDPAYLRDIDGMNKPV
T1 sequence (P35372 whole entry): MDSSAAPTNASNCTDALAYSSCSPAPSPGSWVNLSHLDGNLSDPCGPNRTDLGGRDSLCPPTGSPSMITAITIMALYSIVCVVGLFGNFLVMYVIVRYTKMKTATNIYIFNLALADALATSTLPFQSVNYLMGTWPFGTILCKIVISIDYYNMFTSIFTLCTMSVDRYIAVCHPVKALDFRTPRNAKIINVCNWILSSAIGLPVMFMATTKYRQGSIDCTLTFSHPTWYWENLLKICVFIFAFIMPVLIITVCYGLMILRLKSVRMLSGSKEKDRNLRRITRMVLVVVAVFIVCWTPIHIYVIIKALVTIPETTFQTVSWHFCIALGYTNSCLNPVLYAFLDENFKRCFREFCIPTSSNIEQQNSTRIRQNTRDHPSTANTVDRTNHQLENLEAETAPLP

## C[C@H](NC(=O)CNC(=O)[C@@H](NC(=O)[C@H](Cc1ccccc1)NC(=O)CNC(=O)CNC(=O)[C@@H](N)Cc1ccccc1)[C@@H](C)O)C(=O)N[C@@H](CCCNC(=N)N)C(=O)N[C@@H](CCCCN)C(=O)N[C@@H](CO)C(=O)N[C@@H](C)C(=O)N[C@@H](CCCNC(=N)N)C(=O)N[C@@H](CCCCN)C(=O)N[C@@H](CSSC[C@H](NC(=O)[C@H](CCCCN)NC(=O)[C@H](CCCNC(=N)N)NC(=O)[C@H](C)NC(=O)[C@H](CO)NC(=O)[C@H](CCCCN)NC(=O)[C@H](CCCNC(=N)N)NC(=O)[C@H](C)NC(=O)CNC(=O)[C@@H](NC(=O)[C@H](Cc1ccccc1)NC(=O)CNC(=O)CNC(=O)[C@@H](N)Cc1ccccc1)[C@@H](C)O)C(=O)N[C@@H](C)C(=O)N[C@@H](CC(N)=O)C(=O)N[C@@H](CCC(N)=O)C(N)=O)C(=O)N[C@@H](C)C(=O)N[C@@H](CC(N)=O)C(=O)N[C@@H](CCC(N)=O)C(N)=O [1h, [[Cys^14]N/OFQ-NH2]2] (I: H-FGGFTGARKSARKCANQ-NH2 / II: H-FGGFTGARKSARKCANQ-NH2; disulfide I:14-II:14; N-terminus assumed)
[1]
  EC50: > 1000 nM
[2]
  effect in mVD tissues from NOP(−/−) mice (in words): no effect
[3]
  EC50: > 1000 nM
[4]; CHO cells coexpressing human NOP and Gαqi5, Fluo-4, 37 °C, mean (CL95%), N = 5 experiments in duplicate, read-out: Ca^2+ mobilization pEC50 (CL95%) (converted)
  EC50: < 1 nM and 0.724 nM
[4]; CHO cells coexpressing human NOP and Gαqi5, maximum change in percentage over baseline fluorescence, mean ± sem, N = 5 in duplicate
  Ca^2+ mobilization E max ± sem: 241 ± 38 % over the baseline
[4]; calcium mobilization, NOP vs μ, δ, κ receptors
  selectivity for the NOP over classical opioid receptors: more than 1000 fold
[5]
  loss of the RR in NOP(−/−) mice (in words): completely inactive
[6]; mVD from CD-1 NOP(+/+) mice, 33 °C, mean (CL95%), 5 experiments
  potency (pEC50) for inhibition of electrically induced contractions: 6.79 (6.02–7.56)
[6]; mVD, vs N/OFQ
  decrease in mVD potency compared to N/OFQ: approximately 3 fold
[6]; onset and reversibility upon washout
  kinetics of action in mVD (in words): fully and rapidly reversible upon washout
